Measurements taken from patent publication US12655173B2, “Hybrid amide derivatives of amphotericin B” (priority 2020, dated 2026).
Converted amounts (≈) assume the structure as drawn. Where two headings read alike, the source gives them in different places.

Tests used:
Saksenaea sp. = assay: MIC against moulds; assay type: cell-based; conditions: 4 isolates; AmB (AmBisome)
Scedosporium boydii = assay: MIC against rare moulds resistant to AmB; assay type: cell-based; conditions: 6 isolates, Table 4
[1] = system: A. funigatus (CEA10 strain); assay: Efficacy study against pulmonary aspergillosis in neutropenic mice: survival; assay type: in vivo; conditions: 15 mg/kg QD IP for 7 days, monitored until day 14
From the text: Efficacy study (FIG. 22): Healthy mice were divided as 10 mice/group. […] Animals were infected with A. funigatus (CEA10 strain) (intranasal) on day 0. […] Survivability of the animals were monitored during the course of the study.

Cunninghamella sp. = assay: MIC against moulds; assay type: cell-based; conditions: 6 isolates, AmB (AmBisome)
Scedosporium apiospermum = assay: MIC against yeasts (Table 3A); assay type: cell-based; conditions: 2 isolates
[2] = system: Purpureocillium lilacinum; assay: MIC against rare moulds resistant to AmB; assay type: cell-based; conditions: 6 isolates, Table 4
moulds = assay: MICavg / Average MIC against moulds; assay type: cell-based; conditions: for MIC: 157 isolates, Table 2
Scedosporium prolificans = assay: MIC against yeasts (Table 3A); assay type: cell-based; conditions: Lomentospora prolificans, 2 isolates
Epidermophyton floccosum = assay: MIC against yeasts (Table 3A); assay type: cell-based; conditions: 2 isolates
KIM1, LCN2, TIMP1, SPP1 = conditions: mouse, in vivo
[3] = Tolerance study, IP dosing in immunocompromised mice, no infection; conditions: 25 mg/kg QD IP 7 days, observed 14 days
Scedosporium aurantiacum = assay: MIC against rare moulds resistant to AmB; assay type: cell-based; conditions: 4 isolates, Table 4
A. niger = assay: MIC against moulds; assay type: cell-based; conditions: 6 isolates, AmB (AmBisome)
A. fumigatus = assay: MIC against moulds; assay type: cell-based
Cryptococcus gattii = assay: MIC against yeasts; assay type: cell-based
yeast = assay: MICavg / Average MIC against yeasts; assay type: cell-based; conditions: for MIC: 46 isolates, Table 3
C. albicans SN250 = assay: In vivo efficacy in murine candidiasis model (C. albicans SN250), female CD-1 mice, kidney fungal burden
Cryptococcus neoformans = assay: MIC against yeasts; assay type: cell-based
Malassezia furfur = assay: MIC against yeasts (Table 3A); assay type: cell-based; conditions: 3 isolates
Mucor circinelloides = assay: MIC against moulds; assay type: cell-based; conditions: for MIC Mucor circinelloides: 6 isolates, AmB (AmBisome)
Candida krusei = assay: MIC against yeasts; assay type: cell-based
Sporothrix schenckii = assay: MIC against rare moulds resistant to AmB; assay type: cell-based; conditions: 6 isolates, Table 4
[4] = Blood plasma stability, mouse; assay type: in vitro ADME
A. lentulus = assay: MIC against moulds; assay type: cell-based; conditions: 6 isolates, AmB (AmBisome)
Candida tropicalis = assay: MIC against yeasts; assay type: cell-based; conditions: 10 isolates, Table 3A
[5] = Mouse single IV injection: mortality
Solubility in D5W = conditions: in D5W
P450 1A2 = P450 1A2 (Homo sapiens, UniProt P05177); assay: P450 inhibition 1A2; assay type: in vitro ADME
P450 1A2, sequence (P05177 whole entry): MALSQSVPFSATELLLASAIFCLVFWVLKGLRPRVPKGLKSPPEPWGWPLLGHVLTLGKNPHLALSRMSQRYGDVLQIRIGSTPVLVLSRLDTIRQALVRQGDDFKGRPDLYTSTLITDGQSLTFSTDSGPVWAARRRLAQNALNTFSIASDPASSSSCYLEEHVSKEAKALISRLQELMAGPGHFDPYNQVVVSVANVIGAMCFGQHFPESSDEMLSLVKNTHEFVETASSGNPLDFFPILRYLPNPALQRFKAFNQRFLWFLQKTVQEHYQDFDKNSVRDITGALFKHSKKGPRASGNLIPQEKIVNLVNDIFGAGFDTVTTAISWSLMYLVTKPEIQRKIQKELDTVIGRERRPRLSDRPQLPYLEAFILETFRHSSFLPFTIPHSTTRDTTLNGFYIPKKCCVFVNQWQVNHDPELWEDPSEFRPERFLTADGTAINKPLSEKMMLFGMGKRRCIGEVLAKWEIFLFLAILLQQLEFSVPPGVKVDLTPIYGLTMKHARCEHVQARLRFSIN

P450 2C19 = P450 2C19 (Homo sapiens, UniProt P33261); assay: P450 inhibition 2C19; assay type: in vitro ADME
P450 2C19, sequence (P33261 whole entry): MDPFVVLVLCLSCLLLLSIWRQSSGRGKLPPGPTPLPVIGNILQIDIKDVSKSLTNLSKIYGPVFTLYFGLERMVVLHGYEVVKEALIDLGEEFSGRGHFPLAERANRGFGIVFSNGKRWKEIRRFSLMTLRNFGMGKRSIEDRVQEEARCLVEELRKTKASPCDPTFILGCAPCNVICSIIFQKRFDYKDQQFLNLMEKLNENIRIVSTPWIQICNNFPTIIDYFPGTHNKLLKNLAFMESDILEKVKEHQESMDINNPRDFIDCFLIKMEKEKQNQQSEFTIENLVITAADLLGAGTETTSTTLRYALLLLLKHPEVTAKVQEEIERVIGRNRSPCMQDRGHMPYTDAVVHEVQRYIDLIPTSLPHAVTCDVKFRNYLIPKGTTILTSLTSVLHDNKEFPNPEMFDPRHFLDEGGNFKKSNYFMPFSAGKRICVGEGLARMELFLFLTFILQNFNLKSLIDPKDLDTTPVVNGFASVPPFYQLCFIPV

P450 3A4 = P450 3A4 (Homo sapiens, UniProt P08684); assay: P450 inhibition 3A4; assay type: in vitro ADME
P450 3A4, sequence (P08684 whole entry): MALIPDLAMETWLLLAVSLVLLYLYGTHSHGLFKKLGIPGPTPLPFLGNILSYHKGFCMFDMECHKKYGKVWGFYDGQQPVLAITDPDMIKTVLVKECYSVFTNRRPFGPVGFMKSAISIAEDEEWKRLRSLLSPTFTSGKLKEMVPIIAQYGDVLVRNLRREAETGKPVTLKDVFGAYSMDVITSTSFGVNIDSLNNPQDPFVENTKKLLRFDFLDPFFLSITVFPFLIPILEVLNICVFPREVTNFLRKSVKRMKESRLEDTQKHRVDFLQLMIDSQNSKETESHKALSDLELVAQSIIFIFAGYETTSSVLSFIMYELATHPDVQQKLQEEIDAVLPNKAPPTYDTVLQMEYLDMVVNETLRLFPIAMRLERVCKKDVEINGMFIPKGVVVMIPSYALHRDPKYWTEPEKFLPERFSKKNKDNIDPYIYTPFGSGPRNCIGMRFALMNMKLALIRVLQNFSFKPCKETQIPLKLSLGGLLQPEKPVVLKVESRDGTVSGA

P450 2D6 = P450 2D6 (Homo sapiens, UniProt P10635); assay: P450 inhibition 2D6; assay type: in vitro ADME
P450 2D6, sequence (P10635 whole entry): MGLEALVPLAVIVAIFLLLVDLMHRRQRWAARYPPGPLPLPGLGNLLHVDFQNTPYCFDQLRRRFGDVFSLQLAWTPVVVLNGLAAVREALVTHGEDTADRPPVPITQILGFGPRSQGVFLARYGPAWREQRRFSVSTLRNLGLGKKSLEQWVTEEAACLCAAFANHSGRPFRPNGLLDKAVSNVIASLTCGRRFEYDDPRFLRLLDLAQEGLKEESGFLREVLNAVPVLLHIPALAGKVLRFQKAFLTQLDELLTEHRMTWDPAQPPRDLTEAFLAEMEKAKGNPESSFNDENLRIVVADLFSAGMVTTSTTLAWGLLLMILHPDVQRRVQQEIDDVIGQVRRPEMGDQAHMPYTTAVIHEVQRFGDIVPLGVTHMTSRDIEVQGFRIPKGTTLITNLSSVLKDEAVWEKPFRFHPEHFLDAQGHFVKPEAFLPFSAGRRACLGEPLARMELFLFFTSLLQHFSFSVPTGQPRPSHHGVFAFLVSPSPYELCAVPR

P450 2C9 = P450 2C9 (Homo sapiens, UniProt P11712); assay: P450 inhibition 2C9; assay type: in vitro ADME
P450 2C9, sequence (P11712 whole entry): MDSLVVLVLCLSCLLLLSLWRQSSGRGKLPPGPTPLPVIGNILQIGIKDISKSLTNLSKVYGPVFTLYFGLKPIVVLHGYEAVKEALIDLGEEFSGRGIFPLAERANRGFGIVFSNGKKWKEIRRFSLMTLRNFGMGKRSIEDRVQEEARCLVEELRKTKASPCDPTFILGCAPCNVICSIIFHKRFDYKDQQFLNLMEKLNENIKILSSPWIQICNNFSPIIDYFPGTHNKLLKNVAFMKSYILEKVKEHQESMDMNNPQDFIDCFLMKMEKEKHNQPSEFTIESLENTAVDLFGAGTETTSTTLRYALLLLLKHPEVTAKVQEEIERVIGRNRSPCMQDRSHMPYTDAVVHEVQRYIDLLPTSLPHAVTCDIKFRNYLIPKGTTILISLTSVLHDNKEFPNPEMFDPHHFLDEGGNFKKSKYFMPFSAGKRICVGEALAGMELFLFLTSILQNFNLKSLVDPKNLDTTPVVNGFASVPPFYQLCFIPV

[6] = In vivo mouse pharmacokinetics (IV, CD-1 mice)
Method: Mouse PK (FIG. 2): The experiment was performed using the compounds synthesized in lab and purified by preparative HPLC (>91%). All the compounds were dissolved in D5W (5% dextrose in water) at for IV injection. Female CD-1 mice were (3 per group; body weight approx. 30 g each) injected with the compounds (as per planned dosage) and the blood samples were collected at different time points and the compound content was analysed using the following procedure. • Instrument: Triple Quad 6500+ • Matrix […] CD-1 mouse plasma (EDTA-K2) • Analyte(s): Compound 1 • Internal standard(s): 100 ng/mL Labetalol & 100 ng/mL Tolbutamide in ACN • MS conditions ESI: positive • SRM detection • Compound 1: [M+H]+m/z 979.8>798.4 • Labelatol (IS): [M+H]+m/z 329.2>162.1 • UPLC conditions • Mobile Phase A: 0.1% FA in Water • Mobile Phase B: 0.1% FA in ACN
An aliquot of 90 μL supernatant was transferred to sample plate and mixed with 60 μL water, then the plate was shaken at 800 rpm for 10 min, 15.0 μL supernatant was injected for LC-MS/MS analysis. • Calibration curve: • 1.00-3000 ng/ml, for Compound 1 in female CD-1 mouse plasma (EDTA-K2)

[7] = 10 isolates, Table 3, read-out: MIC Cryptococcus gattii
[8] = 2 isolates, Table 3, read-out: MIC Candida krusei

C[C@@H]1[C@H](O)[C@@H](C)/C=C/C=C/C=C/C=C/C=C/C=C/C=C/[C@H](OC2O[C@H](C)[C@@H](O)[C@H](N)[C@@H]2O)C[C@@H]2O[C@](O)(C[C@@H](O)C[C@@H](O)[C@H](O)CC[C@@H](O)C[C@@H](O)CC(=O)O[C@H]1C)C[C@H](O)[C@H]2C(=O)O (stereo partly shown) [AmB, Amphotericin B]
MIC (Saksenaea sp.): 0.06 µM (≈ 0.0554 µg/mL) | MIC (Scedosporium boydii; Scedosporium boydii): > 16 µM | Survival [1]: 80% | MIC (Cunninghamella sp.; Cunninghamella): 2 µM (≈ 1.85 µg/mL) | MIC (Scedosporium apiospermum): > 16 µM | MIC ([2]; Purpureocillium lilacinum): > 16 µM | MICavg moulds (3 strains) (moulds): 0.92 | MIC (moulds): 0.9 µM (≈ 0.832 µg/mL) | MICavg moulds (159 strains) (moulds): 0.9 | MIC (Scedosporium prolificans): > 16 µM | MIC (Epidermophyton floccosum): 0.38 µM (≈ 0.351 µg/mL) | Renal toxicity biomarkers KIM1, LCN2, TIMP1, SPP1 (KIM1, LCN2, TIMP1, SPP1): elevated | Survival [3]: 66% | MIC (Scedosporium aurantiacum; Scedosporium aurantiacum): > 16 µM | MIC (A. niger; Aspergillus niger): 0.21 µM (≈ 0.194 µg/mL) | MIC (A. fumigatus; Aspergillus fumigatus, 5 isolates, AmB (AmBisome)): 0.71 µM (≈ 0.656 µg/mL) | MIC (A. fumigatus; Aspergillus fumigatus, 16 isolates, Table 2A): 2.1 µM (≈ 1.94 µg/mL) | MIC (Cryptococcus gattii; Cryptococcus gattii, 1 isolate, Table 3A, read-out: MIC Cryptococcus gatti): 1 µM (≈ 0.924 µg/mL) | MIC (Cryptococcus gattii; Cryptococcus gattii, 10 isolates, Table 3, read-out: MIC Cryptococcus gattii): 0.75 µM (≈ 0.693 µg/mL) | MICavg yeast (5 strains) (yeast): 0.23 | MIC (yeast): 0.9 µM (≈ 0.832 µg/mL) | MICavg yeast (46 strains) (yeast): 0.9 | Mouse candidiasis model 5 mpk; Log (CFU/mL) (C. albicans SN250): 5.2 Log (CFU/mL) | MIC (Cryptococcus neoformans; Cryptococcus neoformans, 3 isolates, Table 3A): 1.17 µM (≈ 1.08 µg/mL) | MIC (Cryptococcus neoformans; Cryptococcus neoformans, 10 isolates, Table 3): 0.55 µM (≈ 0.508 µg/mL) | MIC (Malassezia furfur): > 16 µM | MIC (Mucor circinelloides; Mucor circinelloides, read-out: MIC Mucor circinelloides): 0.125 µM (≈ 0.116 µg/mL) | MIC (Candida krusei; Pichia kudriavzevii, read-out: MIC Candida krasei): 2.5 µM (≈ 2.31 µg/mL) | MIC (Candida krusei; Pichia kudriavzevii, 2 isolates, Table 3, read-out: MIC Candida krusei): 1 µM (≈ 0.924 µg/mL) | MIC (Sporothrix schenckii; Sporothrix schenckii): 4 µM (≈ 3.7 µg/mL) | half-life ([4]; mouse, blood plasma, read-out: Blood Plasma Stability (T1/2, min) Mouse): > 289 min | MIC (A. lentulus; Aspergillus lentulus): 3.75 µM (≈ 3.47 µg/mL) | MIC (Candida tropicalis): 0.8 µM (≈ 0.739 µg/mL) | Mouse single IV injection: mortality (40 mpk) [5]: 0/3

CC1C=CC=CC=CC=CC=CC=CC=CC(OC2OC(C)C(O)C(N)C2O)CC2OC(O)(CC(O)CC(O)C(O)CCC(O)CC(O)CC(=O)OC(C)C(C)C1O)CC(O)C2C(=O)NC(CO)(CO)CO (stereo not shown) [Compound 2]
MIC (Saksenaea sp.): 0.36 µM (≈ 0.37 µg/mL) | MIC (Scedosporium boydii): >16 µM | Solubility (Solubility in D5W): 0.366 mM (≈ 376 µg/mL) | P450 Inhibition (%) 1A2 (P450 1A2): 0.0% | MIC (Cunninghamella sp.): 5.33 µM (≈ 5.48 µg/mL) | MIC [2]: >16 µM | MICavg moulds (3 strains) (moulds): 1 | MIC (moulds): 2.6 µM (≈ 2.67 µg/mL) | MICavg moulds (159 strains) (moulds): 2.6 | P450 Inhibition (%) 2C19 (P450 2C19): 1.1% | P450 Inhibition (%) 3A4 (P450 3A4): 14.5% | P450 Inhibition (%) 2D6 (P450 2D6): 0.0% | MIC (Scedosporium aurantiacum): >16 µM | MIC (A. niger): 0.75 µM (≈ 0.77 µg/mL) | MIC (A. fumigatus; 5 isolates, AmB (AmBisome)): 2.33 µM (≈ 2.39 µg/mL) | MIC (Cryptococcus gattii; [7]): 2 µM (≈ 2.05 µg/mL) | MICavg yeast (5 strains) (yeast): 0.41 | MIC (yeast): 2.3 µM (≈ 2.36 µg/mL) | MICavg yeast (46 strains) (yeast): 2.3 | MIC (Cryptococcus neoformans; 10 isolates, Table 3): 2 µM (≈ 2.05 µg/mL) | MIC Mucor circinelloides (Mucor circinelloides): 0.92 µM (≈ 0.945 µg/mL) | MIC (Candida krusei; [8]): 3 µM (≈ 3.08 µg/mL) | MIC (Sporothrix schenckii): >5.2 µM | Blood Plasma Stability (T1/2, min) Mouse [4]: 265.1 min | MIC (A. lentulus): 4.33 µM (≈ 4.45 µg/mL) | P450 Inhibition (%) 2C9 (P450 2C9): 0.0%

CC1C=CC=CC=CC=CC=CC=CC=CC(OC2OC(C)C(O)C(N)C2O)CC2OC(O)(CC(O)CC(O)C(O)CCC(O)CC(O)CC(=O)OC(C)C(C)C1O)CC(O)C2C(=O)NC(CO)CO (stereo not shown) [Compound 1]
MIC (Saksenaea sp.): 0.23 µM (≈ 0.229 µg/mL) | MIC (Scedosporium boydii): >16 µM | Solubility (Solubility in D5W): >7.22 mM | P450 Inhibition (%) 1A2 (P450 1A2): 8.7% | MIC (Cunninghamella sp.): 4 µM (≈ 3.99 µg/mL) | MIC [2]: >16 µM | MICavg moulds (3 strains) (moulds): 1.6 | MIC (moulds): 1.4 µM (≈ 1.4 µg/mL) | MICavg moulds (159 strains) (moulds): 1.4 | P450 Inhibition (%) 2C19 (P450 2C19): 0.0% | P450 Inhibition (%) 3A4 (P450 3A4): 14.5% | P450 Inhibition (%) 2D6 (P450 2D6): 0.0% | MIC (Scedosporium aurantiacum): >16 µM | MIC (A. niger): 0.5 µM (≈ 0.499 µg/mL) | MIC (A. fumigatus; 5 isolates, AmB (AmBisome)): 1.33 µM (≈ 1.33 µg/mL) | MIC (Cryptococcus gattii; [7]): 1.6 µM (≈ 1.6 µg/mL) | MICavg yeast (5 strains) (yeast): 0.53 | MIC (yeast): 2.1 µM (≈ 2.09 µg/mL) | MICavg yeast (46 strains) (yeast): 2.1 | Mouse candidiasis model 5 mpk; Log (CFU/mL) (C. albicans SN250): 4.8 Log (CFU/mL) | MIC (Cryptococcus neoformans; 10 isolates, Table 3): 2 µM (≈ 1.99 µg/mL) | MIC Mucor circinelloides (Mucor circinelloides): 0.58 µM (≈ 0.578 µg/mL) | In vivo PK AUC0-inf (ng*hr/mL) ([6]; 1 mg/kg): 18785] ng*hr/mL | In vivo PK Cl ([6]; 1 mg/kg): 0.891 mL/min/kg | In vivo PK T1/2, ([6]; 1 mg/kg): 8.37 h | In vivo PK AUC0-inf ([6]; 5 mg/kg): 79575 ng·h/mL | In vivo PK Cl ([6]; 5 mg/kg): 1.05 mL/min/kg | In vivo PK T1/2, ([6]; 5 mg/kg): 9.6 h | MIC (Candida krusei; [8]): 2 µM (≈ 1.99 µg/mL) | MIC (Sporothrix schenckii): 6 µM (≈ 5.98 µg/mL) | Blood Plasma Stability (T1/2, min) Mouse [4]: >289; >289 min | MIC (A. lentulus): 2.33 µM (≈ 2.32 µg/mL) | Mouse single IV injection: mortality (40 mpk) [5]: 0/4 | P450 Inhibition (%) 2C9 (P450 2C9): 26.9%
